Results: ChEMBL document CHEMBL1134815, “3,3a-Dihydropyrano[4,3,2-de]quinazolin-2(1H)-ones are potent non-nucleoside reverse transcriptase inhibitors” (Bioorg Med Chem Lett, 2001)

Legend:
[1] = target: Human immunodeficiency virus type 1 reverse transcriptase (Human immunodeficiency virus 1, UniProt Q72547); assay: Tested for inhibitory concentration against HIV-1 non-nucleoside reverse transcriptase
[2] = system: Human immunodeficiency virus type 1 reverse transcriptase (Human immunodeficiency virus 1), Q72547 [K103N]
Description: Inhibitory concentration against wild-type virus K103N and HIV-1 RT mutant in a whole cell antiviral assay

[3] = target: Human immunodeficiency virus type 1 reverse transcriptase (Human immunodeficiency virus 1) (UniProt Q72547)
Description: Inhibitory concentration against HIV-1 reverse transcriptase

[4] = system: HIV-1 reverse transcriptase (Human immunodeficiency virus 1); assay: Inhibitory concentration against wild-type virus K103N/[…] and HIV-1 RT double mutant in whole cell antiviral assay
[5] = system: HIV-1 reverse transcriptase (Human immunodeficiency virus 1); assay: Inhibitory concentration against wild-type virus K103N mutant in a whole cell antiviral assay
[6] = system: HIV-1 reverse transcriptase (Human immunodeficiency virus 1); assay: Inhibitory concentration against wild-type virus K103N/[…] and HIVdouble mutant in a whole cell antiviral assay

Q: What does the source list for COc1c(Cl)ccc2c1C(C#CC1CC1)(C(F)(F)F)NC(=O)N2 (stereo unspecified)?
A: IC50 [1]: 0.07 µM; IC90 [2]: 0.0075 µM; IC90 [3]: 0.0035 µM

Q: What does the source list for O=C1Nc2ccc(Cl)c(O)c2C(C#CC2CC2)(C(F)(F)F)N1 (stereo unspecified)?
A: IC50 [1]: 0.054 µM; IC90 [4]: 3.02 µM; IC90 [2]: 0.028 µM; IC90 [3]: 0.0036 µM

Q: COc1c(Cl)ccc2c1C(C#Cc1ccccc1)(C(F)(F)F)NC(=O)N2 (stereo unspecified) was tested. Which IC50 [1] did it give?
A: The IC50 was 0.144 µM.

Q: And the IC90 [4]?
A: Its IC90 is 5.51 µM.

Q: What about the IC90 [2] of the same compound?
A: The IC90 was 0.113 µM.

Q: What about the IC90 [3] of the same compound?
A: Its IC90 is 0.0079 µM.

Q: How did the IC90 [2] turn out when O=C1Nc2ccc(Cl)cc2C(C#Cc2ccccc2)(C(F)(F)F)N1 (stereo unspecified) was run?
A: Its IC90 is 0.007 µM.

Q: Which IC50 [1] does the source give for COc1c(Cl)ccc2c1C(C#Cc1cccnc1)(C(F)(F)F)NC(=O)N2 (stereo unspecified) here?
A: The IC50 was 0.139 µM.

Q: What about the IC90 [4] of the same compound?
A: Its IC90 is 2.54 µM.

Q: What about the IC90 [2] of the same compound?
A: The IC90 was 0.147 µM.

Q: What about the IC90 [3] of the same compound?
A: The IC90 was 0.0071 µM.

Q: With O=C1Nc2ccc(Cl)c3c2C(C(F)(F)F)(C=C(c2ccccc2)O3)N1 (stereo unspecified) as the compound, how does the IC50 [1] read?
A: Its IC50 is 0.244 µM.

Q: What about the IC90 [4] of the same compound?
A: The IC90 was 1.66 µM.

Q: And the IC90 [2]?
A: The IC90 was 0.046 µM.

Q: And the IC90 [3]?
A: The IC90 was 0.0082 µM.

Q: Which IC90 [5] does the source give for O=C1Nc2ccc(Cl)cc2[C@@](/C=C/C2CC2)(C(F)(F)F)N1 here?
A: Its IC90 is 0.027 µM.

Q: What about the IC90 [6] of the same compound?
A: The IC90 was 1.69 µM.

Q: How did the IC50 [1] turn out when O=C1Nc2ccc(Cl)c(O)c2C(C#Cc2ccccc2)(C(F)(F)F)N1 (stereo unspecified) was run?
A: Its IC50 is 0.174 µM.

Q: What about the IC90 [4] of the same compound?
A: The IC90 was 1.94 µM.

Q: And the IC90 [2]?
A: The IC90 was 0.03 µM.

Q: What about the IC90 [3] of the same compound?
A: Its IC90 is 0.0068 µM.

Q: What does the source list for O=C1Nc2ccc(Cl)c3c2C(C(F)(F)F)(C=C(c2cccnc2)O3)N1 (stereo unspecified)?
A: IC50 [1]: 0.122 µM; IC90 [4]: 0.897 µM; IC90 [2]: 0.076 µM; IC90 [3]: 0.0046 µM

Q: Which IC90 [2] does the source give for Fc1ccc2c3c1S/C(=C\c1cccnc1)C3(C(F)(F)F)NC(S)=N2 (stereo unspecified) here?
A: The IC90 was 0.084 µM.

Q: What about the IC90 [3] of the same compound?
A: Its IC90 is 0.007 µM.

Q: For O=C1Nc2ccc(Cl)cc2[C@@](C#CC2CC2)(C(F)(F)F)N1, which IC90 [4] is on record?
A: The IC90 was 1.1 µM.

Q: For O=C1Nc2ccc(Cl)c3c2C(C(F)(F)F)(C=C(C2CC2)O3)N1 (stereo unspecified), which IC50 [1] is on record?
A: The IC50 was 0.09 µM.

Q: What about the IC90 [2] of the same compound?
A: Its IC90 is 0.076 µM.

Q: And the IC90 [3]?
A: Its IC90 is 0.0036 µM.
